# Data published in patent US9718825B2, “N-(4-(azaindazol-6-yl)-phenyl)-sulfonamides and their use as pharmaceuticals” (priority 2013, dated 2017).
# Where two headings read alike, the source gives them in different places.
# Tests used:
# [1] = system: SGK-1 dependent phosphorylation of GSK3beta in U2OS cells; test: SGK-1 dependent phosphorylation of GSK3beta in U2OS cells overexpressing recombinant SGK-1 and GSK3beta; assay type: cell-based, human; conditions: read-out: IC50 values for inhibition of SGK-1 dependent phosphorylation of GSK3beta in U2OS cells
# [2] = molecular target: recombinant human SGK-1 enzyme (Homo sapiens, UniProt O00141); test: Enzymatic activity assay: SGK-1 substrate peptide phosphorylation (Caliper lab-chip mobility shift); assay type: biochemical
# [3] = system: collagen type X (Col10a1) expression in mouse chondrogenic ATDC5 cells; test: Chondrocyte hypertrophic differentiation in mouse chondrogenic ATDC5 cells (collagen type X expression); assay type: cell-based; conditions: Col10a1 expression by quantitative real-time PCR after two weeks of cell culture, read-out: IC50 values for the inhibition of collagen type X expression in mouse chondrogenic ATDC5 cells
# Text: D) Determination of the effect on chondrocyte hypertrophic differentiation in mouse chondrogenic ATDC5 cells
# The ATDC5 cell assay was used as in vitro model to determine the effects of the compounds of the invention on chondrocyte hypertrophic differentiation by monitoring the expression levels of collagen type X (Col10a1) as specific marker of chondrocyte hypertrophy.
# Background: ATDC5 cells are a clonal mouse embryonic cell line derived from multipotent AT805 teratocarcinoma cells (Atsumi, T. et al., A chondrogenic cell line derived from a differentiating culture of AT805 teratocarcinoma cells, Cell Differ. Dev. 1990, 30, 109-116). The cells can undergo insulin-dependent chondrogenic cell differentiation entailing distinct differentiation stages starting from an undifferentiated, subconfluent stage, a condensation stage, a cartilage nodule formation stage and a calcification stage within 45 days of in vitro culture. Chondrogenic differentiation can be shown by measuring the expression of the cartilage main collagen (Col2a1) and aggrecan (AGC1) and glycosaminoglycan-staining with Alcian Blue within two weeks after insulin-triggered differentiation, and hypertrophic differentiation can be monitored by the expression of collagen type X (Col10a1), a specific marker of chondrocyte hypertrophy within 21 days of in vitro culture. (Shukunami, C. et al., Chondrogenic Differentiation of Clonal Mouse Embryonic Cell Lne ATDC5 In Vitro: Differentiation-dependent Gene Expression of Parathyroid Hormone (PTH)/PTH-related Peptide Receptor, J. Cell Biol. 1996, 133, 457-468). Growth factor BMP-2 is known to stimulate cell differentiation and can stimulate early and late-phase ATDC5 differentiation (Shukunami, C. et al., Sequential Progression of the Differentiation Program by Bone Morphogenetic Protein-2 in Chondrogenic Cell Line ATDC5, Exp. Cell Res. 1998, 241, 1-11). Thyroid hormone triiodothyronine (T3) promotes hypertrophic differentiation of growth plate chondrocytes (Robson, H. et al., Thyroid Hormone Acts Directly on Growth Plate Chondrocytes to Promote Hypertrophic Differentiation and Inhibit Clonal Expansion and Cell Proliferation, Endocrinology 2000, 141, 3887-3897). Addition of BMP2 and T3 can accelerate ATDC5 hypertrophic differentiation leading to the strong induction Col10a1 expression between 10-14 days. SGK-inhibitors were added to differentiating ATDC5 cells for 14 days and Col10a1 gene expression was quantified to determine effects on chondrocyte hypertrophic differentiation.
# Cell assay description: ATDC5 cells were maintained in 300 cm^2 tissue culture flasks in DMEM/Ham's F12+5% FCS supplemented with 10 μg/ml human transferrin, 30 nM sodium selenite, 50 μg/ml kanamycin and grown at 37° C. in 5% CO2 in 95% air. To initiate cell differentiation, 9.9×10^4 cells were plated in 24 well plates and grown for 2 days. Medium was exchanged with DMEM/Ham's F12+5% FCS supplemented with 10 μg/ml human transferrin, 30 nM sodium selenite, 50 μg/ml ascorbic acid and 1 μg/ml BMP2. The assay was run in triplicates, compounds were added in […], and medium changed every 2-3 days including supplementation of compound. At day 7 after initiation of cell differentiation, 1 μM T3 was used as additional supplement in the cell culture.
# After two weeks of cell culture, RNA was isolated and converted to cDNA for determination of gene expression by quantitative real-time PCR. Cells were lysed in 600 μl of RLT-buffer (Qiagen) and total RNA was isolated using the RNA-easy Mini RNA isolation Kit (Qiagen) which was run on a Qiacube system (Qiagen) according to the supplier's instructions. RNA was isolated in 30 μl of pure water and the RNA content measured by UV-spectroscopy (Nanodrop, Peqlab). For cDNA synthesis 50 ng total RNA was reverse transcribed using the High Capacity cDNA Reverse Transcription Kit (Applied Biosystems, Product Number 4368813) according to the manufacturer's instructions. […]
# [4] = system: SGK-1 dependent activation of ENaC-currents in A6 cell monolayers; test: Functional electrophysiological assay (Ussing chamber): SGK-1 dependent activation of ENaC-currents in A6 cell monolayers; assay type: cell-based, Xenopus laevis; conditions: hypoosmotic shock 45 min, amiloride-sensitive ΔI'sc, read-out: IC50 values for inhibition of SGK-1 dependent activation of ENaC-currents in A6 cell monolayers
# Method: C) Functional Electrophysiological Assay for Determination of SGK-1 Dependent Activation of ENaC-Currents in A6 Cell Monolayers
# Cells were grown in cell culture flasks (Nunc) at 28° C. in a humidified atmosphere with 4% CO2. The culture medium contained a 7:3 mixture of Leibovitz's L-15 (Sigma-Aldrich)/Coon's (Sigma-Aldrich) media supplemented with 10% fetal bovine serum (PAA), 20% sterile water, 25 mM NaHCO3 (Sigma-Aldrich), 100 U/ml penicillin (PAA) and 100 μg/ml streptomycin (PAA). The osmolality of the medium was 270 mOsml/kg H2O). Cells were detached with accutase (PAA) and seeded for electrophysiological measurements into transwell filter inserts (polyester 0.4 μm pore size, Corning) at a density of 0.4×10^6 cells/filter. Cells were cultivated for 7-10 days, and confluent A6 cell monolayers were identified by repetitive resistance measurements in cell culture medium using an EVOM^2 ohmmeter (World Precision Instruments). Monolayers with a resistance of >10 kOhm were considered confluent. Filters with confluent A6 cells were transferred into a continuously perfused Ussing-chamber, and electrophysiological parameters were measured under open circuit conditions using a transepithelial clamp amplifier (EP Design). Short circuit current (I′sc) was calculated by Ohm's law. […] The pH was adjusted to 8.2. All measurements were done at room temperature.
# To evaluate the effects of SGK inhibitors on ENaC-mediated transepithelial currents, A6 monolayers were first equilibrated for 5 min with isoosmotic Ringer solution from both the luminal and basolateral side of the cell layer. Amiloride was applied to the luminal site to establish the basal ENaC-dependent current (I′scbasal). Cell layers were then perfused from the basolateral side for 10 min with compounds in isotonic buffer or control isotonic buffer. SGK signaling leading to increased ENaC activity and subsequent increase in I′sc was stimulated by application of hypoosmotic Ringer-solution for 45 min to both sides of the A6 cell layer. ENaC-dependent I′sc after the hypoosmotic shock (I′schypo) was determined by application of amiloride at the end of the experiment. Total changes of amiloride-sensitive Isc was calculated as ΔI′sc=I′schypo−I′scbasal. […] The inhibition of ΔI′sc by the test compounds was determined relative to the ΔI′sc measured with control monolayers which were not treated with the test compound.
# [5] = molecular target: recombinant human SGK-1 enzyme; test: Enzymatic activity assay: SGK-1 substrate peptide phosphorylation (Caliper lab-chip mobility shift); assay type: biochemical; conditions: peptide substrate 1 μM, ATP 10 μM, 60 min at 37° C., read-out: IC50 values for inhibition of SGK-1 enzymatic activity
# [6] = U2OS cells, 6 h incubation, ratio of phosphorylated GSK3beta to total GSK3beta
# [7] = peptide substrate 1 μM, ATP 10 μM, 60 min at 37° C., read-out: IC50 values for inhibition of SGK-1 enzymatic activity
# [8] = Homo sapiens, U2OS cells, 6 h incubation, ratio of phosphorylated GSK3beta to total GSK3beta
# [9] = read-out: IC50 values for inhibition of SGK-1 enzymatic activity, peptide substrate 1 μM, ATP 10 μM, 60 min at 37° C.
# [10] = Mus musculus, Chondrocyte, 336 h
# recombinant human SGK-1 enzyme (Homo sapiens, UniProt O00141), sequence (O00141 whole entry, looked up): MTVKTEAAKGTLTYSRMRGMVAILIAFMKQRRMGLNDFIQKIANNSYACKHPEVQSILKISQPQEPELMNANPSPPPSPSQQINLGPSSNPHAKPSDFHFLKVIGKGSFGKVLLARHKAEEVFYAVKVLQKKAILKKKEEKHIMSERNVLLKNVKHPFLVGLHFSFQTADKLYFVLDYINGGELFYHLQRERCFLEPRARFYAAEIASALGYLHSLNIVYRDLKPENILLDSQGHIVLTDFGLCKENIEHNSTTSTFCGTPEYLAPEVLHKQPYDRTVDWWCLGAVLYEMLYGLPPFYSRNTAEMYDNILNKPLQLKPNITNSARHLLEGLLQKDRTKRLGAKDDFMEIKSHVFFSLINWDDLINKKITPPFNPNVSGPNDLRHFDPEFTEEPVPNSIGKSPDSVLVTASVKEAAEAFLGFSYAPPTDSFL
Structure (SMILES),"IC50 [1, 6] [nM]","IC50 [2, 7] [nM]",IC50 [3] [nM],IC50 [4] [nM],further results
O=S(=O)(Nc1ccc(-c2nc(OC3CCC(O)CC3)c3cn[nH]c3n2)cc1)c1cc(Cl)ccc1Cl (stereo not drawn) [Example 61],430,< 1.2,36,1400,–
"Nc1n[nH]c2cc(-c3ccc(NS(=O)(=O)c4cc(Cl)c(F)cc4F)cc3)nc(O)c12 [Example 549, N-[4-(3-Amino-4-hydroxy-1H-pyrazolo[4,3-c]pyridin-6-yl)phenyl]-5-chloro-2,4-difluoro-benzenesulfonamide]",–,–,–,–,IC50 [5]: 7.7 nM
COc1ccc(C#N)c(S(=O)(=O)Nc2ccc(-c3nc(C4CC4)c4c(N)n[nH]c4n3)cc2)c1 [Example 520],61,< 1.5,30,500,–
Nc1n[nH]c2nc(-c3ccc(NS(=O)(=O)c4cc(F)ccc4F)cc3)ncc12 [Example 519],260,190,260,1100,–
"Cc1ccc(C#N)c(S(=O)(=O)Nc2ccc(-c3nc(OC4CCC(O)CC4)c4cn[nH]c4n3)cc2)c1 (stereo not drawn) [Example 4, 2-Cyano-N-{4-[4-(4-hydroxy-cyclohexyloxy)-1H-pyrazolo[3,4-d]pyrimidin-6-yl]-phenyl}-5-methyl-benzenesulfonamide]",–,–,–,–,"IC50 [1, 8]: 110 nM; IC50 [2, 9]: < 1.5 nM; IC50 [3, 10]: 9 nM; IC50 ([4]; Xenopus laevis, INA-6, 0.75 h): 3200 nM"
COc1ccc(Cl)c(S(=O)(=O)Nc2ccc(-c3nc(C)c4c(N)n[nH]c4n3)cc2)c1 [Example 467],150,< 1.5,53,160,–
Cc1nc(-c2ccc(NS(=O)(=O)c3cc(Cl)ccc3C#N)cc2)nc2[nH]ncc12 [Example 492],4200,3.8,660,1100,–
"Cc1ccc(C#N)c(S(=O)(=O)Nc2ccc(-c3cc4[nH]nc(C)c4cn3)cc2)c1 [Example 561, 2-Cyano-5-methyl-N-[4-(3-methyl-1H-pyrazolo[4,3-c]pyridin-6-yl)phenyl]benzenesulfonamide]",–,–,–,–,"IC50 ([1]; Homo sapiens, U2OS, 6 h): 2700 nM; IC50 [5]: 7.8 nM"
N#Cc1ccc(Cl)cc1S(=O)(=O)Nc1ccc(-c2nc(OC3CCC(O)CC3)c3cn[nH]c3n2)cc1 (stereo not drawn) [Example 83],2100,2,130,1900,–
"Cc1nc(-c2ccc(NS(=O)(=O)c3cc(Cl)c(F)cc3F)cc2)nc2[nH]nc(N)c12 [Example 447, N-[4-(3-Amino-4-methyl-1H-pyrazolo[3,4-d]pyrimidin-6-yl)-phenyl]-5-chloro-2,4-difluoro-benzenesulfonamide]",–,–,–,–,"IC50 [1, 8]: 340 nM; IC50 [2, 9]: < 1.5 nM; IC50 [3, 10]: 330 nM; IC50 ([4]; Xenopus laevis, INA-6, 0.75 h): 60 nM"
"O=S(=O)(Nc1ccc(-c2cc3[nH]ncc3cn2)cc1)c1cc(Cl)ccc1Cl [Example 563, 2,5-Dichloro-N-[4-(1H-pyrazolo[4,3-c]pyridin-6-yl)phenyl]benzenesulfonamide]",–,–,–,–,IC50 [5]: 52 nM
